Reference: patent US7528148B2, “Pyrazolo[3,4-B]pyridine compounds, and their use as phosphodiesterase inhibitors” (Glaxo Group Limited, priority 2002, dated 2009)

Tested on: microfilaricidal activity
Assay: not given
Conditions: cited from earlier work

SMILES	microfilaricidal activity
CC1Cc2ccccc2C(c2cnc3c(c(-c4ccccc4)nn3-c3ccccc3)c2O)=N1 (stereo not shown)	no significant microfilaricidal activity
Oc1c(C2=NCCc3ccccc32)cnc2c1c(-c1ccccc1)nn2-c1ccccc1 [4-hydroxy-1,3-diphenyl-5-(3′,4′-dihydroisoquinol-1′-yl)-pyrazolo[3,4-b]pyridine, reference compound]	no significant microfilaricidal activity

Tested on: LPS-induced pulmonary neutrophilia and emesis in the conscious ferret
Assay: In vivo Assay 4: therapeutic index of orally-administered PDE4 inhibitors in the conscious ferret
Conditions: D20/D50, p.o.
Experimental: In vivo Assay 4. Evaluation of Therapeutic Index of Orally-administered PDE 4 Inhibitors in the Conscious Ferret
PDE4 inhibitors are prepared for oral p.o.) administration by dissolving in a fixed volume (1 ml) of acetone and then adding cremophor to 20% of the final volume. Acetone is evaporated by directing a flow of nitrogen gas onto the solution. Once the acetone is removed, the solution is made up to final volume with distilled water. LPS is dissolved in phosphate buffered saline.
Male ferrets (Mustela Pulorius Furo, weighing 1-2 kg) are transported and allowed to acclimatise for not less than 7 days. The diet comprises SDS diet C pelleted food given ad lib with Whiskers™ cat food given 3 times per week. The animals are supplied with pasteurised animal grade drinking water changed daily.
PDE4 inhibitors are administered orally (p.o.), using a dose volume of 1 ml/kg.
Ferrets are fasted overnight but allowed free access to water. The animals are orally dosed with vehicle or PDE 4 inhibitor using a 15 cm dosing needle that is passed down the back of the throat into the oesophagus. After dosing, the animals are returned to holding cages fitted with perspex doors to allow observation, and given free access to water. The animals are constantly observed and any emetic episodes (retching and vomiting) or behavioural changes are recorded. […]
Thirty minutes after oral dosing with compound or vehicle control, the ferrets are placed into sealed perspex containers and exposed to an aerosol of LPS (30 μg/ml) for 10 minutes. […] All emetic episodes and behavioural changes are recorded.
Six hours after LPS exposure the animals are killed by overdose of sodium pentobarbitone administered intraperitoneally. […] From this, the total number of neutrophils in the BAL sample is determined. […]
b) Emetic episodes—the number of vomits and retches are counted to determine the dose of PDE4 inhibitor that gives a 20% incidence of emesis (D20).
c) A therapeutic index (TI), using this assay, is then calculated for each PDE4 inhibitor using the following equation: […]

SMILES	Ferret TI
O=C(Nc1c(Cl)cncc1Cl)c1ccc(OC(F)F)c(OCC2CC2)c1 [roflumilast]	1.1

Same assay, conditions: ferret, p.o.; dose giving 20% incidence of emesis

SMILES	D20 for emesis [mg/kg]
O=C(Nc1c(Cl)cncc1Cl)c1ccc(OC(F)F)c(OCC2CC2)c1 [roflumilast]	0.46

Same assay, conditions: ferret, p.o.; dose giving 50% inhibition of LPS-induced pulmonary neutrophilia

SMILES	D50 for ferret neutrophilia [mg/kg]
O=C(Nc1c(Cl)cncc1Cl)c1ccc(OC(F)F)c(OCC2CC2)c1 [roflumilast]	0.42

Biological target: T1, PDE4B (human recombinant) (Homo sapiens, UniProt Q07343)
T1 construct: made in house; host or cells: Saccharomyces cerevisiae strain GL62 (PDE-deficient)
T1 sequence (Q07343 1-564 isoform Q07343-2): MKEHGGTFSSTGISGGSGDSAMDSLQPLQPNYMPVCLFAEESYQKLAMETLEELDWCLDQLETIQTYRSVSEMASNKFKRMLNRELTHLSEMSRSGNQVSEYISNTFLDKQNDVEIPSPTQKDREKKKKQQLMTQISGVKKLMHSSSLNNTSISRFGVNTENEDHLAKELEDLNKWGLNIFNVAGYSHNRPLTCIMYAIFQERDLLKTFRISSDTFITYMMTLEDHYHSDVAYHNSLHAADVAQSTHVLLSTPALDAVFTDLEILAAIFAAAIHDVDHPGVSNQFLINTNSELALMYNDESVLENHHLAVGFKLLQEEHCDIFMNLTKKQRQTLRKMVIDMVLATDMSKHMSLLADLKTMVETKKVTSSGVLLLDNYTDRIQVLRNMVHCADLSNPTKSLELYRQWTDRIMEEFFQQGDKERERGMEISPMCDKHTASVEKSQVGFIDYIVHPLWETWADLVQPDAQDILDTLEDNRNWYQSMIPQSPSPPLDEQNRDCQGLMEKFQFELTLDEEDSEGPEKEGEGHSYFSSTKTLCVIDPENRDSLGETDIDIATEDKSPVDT
Assay: PDE4B inhibition, radioactive SPA or IMAP fluorescence polarisation (FP) assay
Assay type: biochemical
Conditions: one reading or average of ca. 2-6 readings, accurate only to about ±0.5 log unit, read-out: PDE4B pIC50 (±about 0.5) (converted)
Excerpt: Human recombinant PDE4B, in particular the 2B splice variant thereof (HSPDE4B2B), is disclosed in WO 94/20079 and also M. M. McLaughlin et al., “A low Km, rolipram-sensitive, cAMP-specific phosphodiesterase from human brain: cloning and expression of cDNA, biochemical characterisation of recombinant protein, and tissue distribution of mRNA”, J. Biol. Chem., 1993, 268, 6470-6476. Human recombinant PDE4B was expressed in the PDE-deficient yeast Saccharomyces cerevisiae strain GL62. 100,000×g supernatant fractions of yeast cell lysates were used for PDE4B assays and inhibitor studies.
The ability of compounds to inhibit catalytic activity at PDE4B or 4D (human recombinant), PDE3 (from bovine aorta) or PDE5 (human recombinant) or PDE6 (from bovine retina) was determined by Scintillation Proximity Assay (SPA) in 96-well format. Test compounds (preferably as a solution in DMSO, e.g. about 2 microlitre (ul) volume of DMSO solution) were preincubated at ambient temperature (room temperature, e.g. 19-23° C.) in Wallac Isoplates (code 1450-514) with PDE enzyme in 50 mM Tris-HCl buffer pH 7.5, 8.3 mM MgCl2, 1.7 mM EGTA, 0.05% (w/v) bovine serum albumin for 10-30 minutes (usually 30 minutes). The enzyme concentration was adjusted so that no more than 20% hydrolysis of the substrate defined below occurred in control wells without compound, during the incubation. For PDE3, PDE4B and PDE4D assays, [5′,8-^3H]Adenosine 3′,5′-cyclic phosphate (Amersham Pharmacia Biotech, code TRK.559; or Amersham Biosciences UK Ltd, Pollards Wood, Chalfont St Giles, Buckinghamshire HP8 4SP, UK) was added to give 0.05 uCi per well and ˜10 nM final concentration. For the PDE5 and PDE6 assay [8-^3H]Guanosine 3′,5′-cyclic phosphate (Amersham Pharmacia Biotech, code TRK.392) was added to give 0.05 uCi per well and ˜36 nM final concentration. Plates, preferably containing approx. 100 ul volume of assay mixture, were mixed on an orbital shaker for 5 minutes and incubated at ambient temperature for 1 hour. Phosphodiesterase SPA beads (Amersham Pharmacia Biotech, code RPNQ 0150) were added (˜1 mg per well) to terminate the assay. Plates were sealed and shaken and allowed to stand at ambient temperature for 35 minutes to 1 hour (preferably 35 minutes) to allow the beads to settle. Bound radioactive product was measured using a WALLAC TRILUX 1450 Microbeta scintillation counter. For inhibition curves, 10 concentrations ([…]) of each compound were assayed. Curves were analysed using ActivityBase and XLfit (ID Businesss Solutions Limited, 2 Ocean Court, Surrey Research Park, Guildford, Surrey GU2 7QB, United Kindgom) Results were expressed as pIC50 values.
The ability of compounds to inhibit catalytic activity at PDE4B (human recombinant) or PDE4D (human recombinant) was determined by IMAP Fluorescence Polarisation (FP) assay (IAP Explorer kit, available from Molecular Devices Corporation, Sunnydale, Calif., USA; Molecular Devices code: R8062) in 384-well format. The IMAP FP assay is able to measure PDE activity in an homogenous, non-radioactive assay format. The FP assay uses the ability of immobilised trivalent metal cations, coated onto nanoparticles (tiny beads), to bind the phosphate group of Fl-AMP that is produced on the hydrolysis of fluorescein-labelled (Fl) cyclic adenosine mono-phosphate (Fl-cAMP) to the non-cyclic Fl-AMP form. […] Binding of Fl-AMP product to the beads (coated with the immobilised trivalent cations) slows the rotation of the bound Fl-AMP and leads to an increase in the fluorescence polarisation ratio of parallel to perpendicular light. Inhibition of the PDE reduces/inhibits this signal increase. […]

IC50 [µM]	SMILES
0.000794 to 0.0316	CCn1ncc2c(NC3CCOCC3)c(-c3nc(C(=O)N4CCOCC4)co3)cnc21 [Example 59, 1-Ethyl-5-[4-(4-morpholinylcarbonyl)-1,3-oxazol-2-yl]-N-(tetrahydro-2H-pyran-4-yl)-1H-pyrazolo[3,4-b]pyridin-4-amine]
0.0631 to 0.251	CCn1ncc2c(N(C)C3CCOCC3)c(-c3nnc(C)o3)cnc21 [Example 60, 1-Ethyl-N-methyl-5-(5-methyl-1,3,4-oxadiazol-2-yl)-N-(tetrahydro-2H-pyran-4-yl)-1H-pyrazolo[3,4-b]pyridin-4-amine]
0.0631 to 0.251	CCn1ncc2c(N[C@H]3CC[C@H](O)CC3)c(-c3nnc(C)o3)cnc21 [Example 61, trans-4-{[1-Ethyl-5-(5-methyl-1,3,4-oxadiazol-2-yl)-1H-pyrazolo[3,4-b]pyridin-4-yl]amino}cyclohexanol]
0.000794 to 0.0316	CCn1ncc2c(NC3CCCOC3)c(-c3nnc(C)o3)cnc21 (stereo not shown) [Example 62, 1-Ethyl-5-(5-methyl-1,3,4-oxadiazol-2-yl)-N-(tetrahydro-2H-pyran-3-yl)-1H-pyrazolo[3,4-b]pyridin-4-amine]
0.000794 to 0.0316	CCn1ncc2c(NC3CCC(=O)CC3)c(-c3nnc(C)o3)cnc21 [Example 63, 4-{[1-Ethyl-5-(5-methyl-1,3,4-oxadiazol-2-yl)-1H-pyrazolo[3,4-b]pyridin-4-yl]amino}cyclohexanone]
0.0631 to 0.251	CCCN(c1c(-c2nnc(C)o2)cnc2c1cnn2CC)C1CCOCC1 [Example 64, 1-Ethyl-5-(5-methyl-1,3,4-oxadiazol-2-yl)-N-n-propyl-N-(tetrahydro-2H-pyran-4-yl)-1H-pyrazolo[3,4-b]pyridin-4-amine]
0.000794 to 0.0316	CCn1ncc2c(NC3CCOCC3)c(-c3nnc(C4CCOCC4)o3)c(C)nc21 [Example 66, 1-Ethyl-6-methyl-N-(tetrahydro-2H-pyran-4-yl)-5-[5-(tetrahydro-2H-pyran-4-yl)-1,3,4-oxadiazol-2-yl]-1H-pyrazolo[3,4-b]pyridin-4-amine]
0.000794 to 0.0316	CCn1ncc2c(NC3CCOCC3)c(-c3nnc(Cc4nonc4C)o3)cnc21 [Example 71, 1-Ethyl-5-{5-[(4-methyl-1,2,5-oxadiazol-3-yl)methyl]-1,3,4-oxadiazol-2-yl}-N-(tetrahydro-2H-pyran-4-yl)-1H-pyrazolo[3,4-b]pyridin-4-amine]
0.000794 to 0.0316	CCn1ncc2c(NC3CCOCC3)c(-c3nnc(CN(C)C(C)=O)o3)cnc21 [Example 76, N-({5-[1-Ethyl-4-(tetrahydro-2H-pyran-4-ylamino)-1H-pyrazolo[3,4-b]pyridin-5-yl]-1,3,4-oxadiazol-2-yl}methyl)-N-methylacetamide]
0.000794 to 0.0316	CCn1ncc2c(NC3CCOCC3)c(-c3nnc(CC4CCOCC4)o3)cnc21 [Example 77, 1-Ethyl-N-(tetrahydro-2H-pyran-4-yl)-5-[5-(tetrahydro-2H-pyran-4-ylmethyl)-1,3,4-oxadiazol-2-yl]-1H-pyrazolo[3,4-b]pyridin-4-amine]
0.000794 to 0.0316	CCn1ncc2c(NC3CCOCC3)c(-c3nc(CC(=O)N4CCCC4)no3)cnc21 [Example 84, 1-Ethyl-5-{3-[2-oxo-2-(1-pyrrolidinyl)ethyl]-1,2,4-oxadiazol-5-yl}-N-(tetrahydro-2H-pyran-4-yl)-1H-pyrazolo[3,4-b]pyridin-4-amine]
